Test system: enzymatisch isolierte Kutikeln von Apfelbaumblättern
Experiment: Cuticle penetration test in diffusion cells with HPLC read-out (Beispiel V)
Format: in vitro ADME, Apfelbäumen
Settings: active substances without additives and in presence of propylene carbonate (Tabelle V, Eintrag 1,2)
Text: In diesem Test wird die Penetration von Wirkstoffen durch enzymatisch isolierte Kutikeln von Apfelbaumblättern gemessen.
Verwendet werden Blätter, die in voll entwickeltem Zustand von Apfelbäumen abgeschnitten werden und nach der Methode beschrieben bei Schönherr und Riederer isoliert (Schönherr, J., Riederer, M. (1986)). Es werden nur die von Spaltöffnungen und Haaren freien Kutikeln der Blattoberseiten weiter verwendet. Die so gewonnenen Kutikularmembranen werden für Membran-Transport-Untersuchungen in Diffusionszellen (=Transportkammern) aus Edelstahl eingelegt. Dazu werden die Kutikeln mit einer Pinzette mittig auf die mit Silikonfett bestrichenen Ränder der Diffusionszellen plaziert und mit einem ebenfalls gefetteten Ring verschlossen. Die Anordnung ist so gewählt, dass die morphologische Außenseite der Kutikeln nach außen, also zur Luft, gerichtet ist, während die ursprüngliche Innenseite dem Inneren der Diffusionszelle zugewandt ist. Die Diffusionszellen sind mit Wasser bzw. mit einem Gemisch aus Wasser und Lösungsmittel gefüllt und auf des physiologisch relevante pH von 5.5 gepuffert. Das Medium der Diffusionszellen soll das Apoplast, also das natürliche Aufnahmemdium im inneren des Blattes nachstellen. […]

SMILES: O=C1C=C(N(Cc2ccc(Cl)nc2)CC(F)F)CO1 [Flupyradifurone]
- Kutikelpenetration: keine oder kaum Kutikelpenetration

Source: patent EP3772943B1, “FORMULATION OF INSECTICIDAL MIXTURES WITH PROPYLENE CARBONATE” (Bayer Aktiengesellschaft, priority 2018, dated 2019)
